Source: ChEMBL document CHEMBL3797052 (Eur J Med Chem, 2016)

Legend:
Assay type in all cases: functional
[1] = Antiproliferative activity against human UACC257 cells assessed as cell growth at 10^-4 M after 48 hrs by sulforhodamine B assay; conditions: UACC-257, 48 h, read-out: Activity
[2] = system: SR; test: Antiproliferative activity against human SR cells assessed as cell growth at 10^-4 M after 48 hrs by sulforhodamine B assay; conditions: read-out: Activity
[3] = system: U-251; test: Antiproliferative activity against human U251 cells assessed as cell growth at 10^-6 M after 48 hrs by sulforhodamine B assay; conditions: U-251, 48 h, read-out: Activity
[4] = system: 786-0; test: Antiproliferative activity against human 786-0 cells assessed as cell growth at […] after 48 hrs by sulforhodamine B assay; conditions: 786-0, 48 h, read-out: Activity
[5] = Antiproliferative activity against human PC3 cells assessed as cell growth at 10^-7 M after 48 hrs by sulforhodamine B assay; conditions: PC-3, 48 h, read-out: Activity
[6] = system: M14; test: Antiproliferative activity against human M14 cells assessed as cell growth at 10^-8 M after 48 hrs by sulforhodamine B assay; conditions: M14, 48 h, read-out: Activity
[7] = system: EKVX; test: Antiproliferative activity against human EKVX cells assessed as growth inhibition after 48 hrs by sulforhodamine B assay
[8] = system: SN12C; test: Antiproliferative activity against human SN12C cells assessed as cell growth at 10^-8 M after 48 hrs by sulforhodamine B assay; conditions: read-out: Activity
[9] = Antiproliferative activity against human SW620 cells assessed as cell growth at […] M after 48 hrs by sulforhodamine B assay; conditions: SW-620, 48 h, read-out: Activity
[10] = system: K562; test: Antiproliferative activity against human K562 cells assessed as cell growth at 10^-7 M after 48 hrs by sulforhodamine B assay; conditions: K562, 48 h, read-out: Activity
[11] = system: K562; test: Antiproliferative activity against human K562 cells assessed as cell growth at 10^-8 M after 48 hrs by sulforhodamine B assay; conditions: K562, 48 h, read-out: Activity
[12] = system: SK-MEL-28; test: Antiproliferative activity against human SK-MEL-28 cells assessed as growth inhibition after 48 hrs by sulforhodamine B assay; conditions: SK-MEL-28, 48 h
[13] = Antiproliferative activity against human RPMI8226 cells assessed as cell growth at 10^-7 M after 48 hrs by sulforhodamine B assay; conditions: RPMI-8226, 48 h, read-out: Activity
[14] = Antiproliferative activity against human UO31 cells assessed as cell growth at 10^-7 M after 48 hrs by sulforhodamine B assay; conditions: UO-31, 48 h, read-out: Activity
[15] = Antiproliferative activity against human BT549 cells assessed as growth inhibition after 48 hrs by sulforhodamine B assay; conditions: BT-549, 48 h; for CC50: read-out: LC50 (the source's name)
[16] = system: M14; test: Antiproliferative activity against human M14 cells assessed as cell growth at 10^-6 M after 48 hrs by sulforhodamine B assay; conditions: M14, 48 h, read-out: Activity
[17] = Antiproliferative activity against human TK10 cells assessed as growth inhibition after 48 hrs by sulforhodamine B assay; conditions: TK-10, 48 h; for CC50: read-out: LC50 (the source's name)
[18] = Antiproliferative activity against human PC3 cells assessed as cell growth at 10^-8 M after 48 hrs by sulforhodamine B assay; conditions: PC-3, 48 h, read-out: Activity
[19] = Antiproliferative activity against human UO31 cells assessed as cell growth at 10^-4 M after 48 hrs by sulforhodamine B assay; conditions: UO-31, 48 h, read-out: Activity
[20] = system: T47D; test: Antiproliferative activity against human T47D cells assessed as cell growth at 10^-8 M after 48 hrs by sulforhodamine B assay; conditions: read-out: Activity
[21] = Antiproliferative activity against human BT549 cells assessed as cell growth at 10^-6 M after 48 hrs by sulforhodamine B assay; conditions: BT-549, 48 h, read-out: Activity
[22] = system: SN12C; test: Antiproliferative activity against human SN12C cells assessed as cell growth at 10^-6 M after 48 hrs by sulforhodamine B assay; conditions: read-out: Activity
[23] = system: SK-MEL-5; test: Antiproliferative activity against human SK-MEL-5 cells assessed as cell growth at 10^-7 M after 48 hrs by sulforhodamine B assay; conditions: SK-MEL-5, 48 h, read-out: Activity
[24] = system: SN12C; test: Antiproliferative activity against human SN12C cells assessed as cell growth at 10^-4 M after 48 hrs by sulforhodamine B assay; conditions: read-out: Activity
[25] = Antiproliferative activity against human MOLT4 cells assessed as cell growth at 10^-8 M after 48 hrs by sulforhodamine B assay; conditions: MOLT-4, 48 h, read-out: Activity
[26] = Antiproliferative activity against human IGROV1 cells assessed as cell growth at 10^-8 M after 48 hrs by sulforhodamine B assay; conditions: IGROV-1, 48 h, read-out: Activity
[27] = system: A498; test: Antiproliferative activity against human A498 cells assessed as growth inhibition after 48 hrs by sulforhodamine B assay; conditions: A498, 48 h
[28] = Antiproliferative activity against human SKOV3 cells assessed as cell growth at 10^-6 M after 48 hrs by sulforhodamine B assay; conditions: SK-OV-3, 48 h, read-out: Activity
[29] = Antiproliferative activity against human OVCAR4 cells assessed as cell growth at 10^-6 M after 48 hrs by sulforhodamine B assay; conditions: OVCAR-4, 48 h, read-out: Activity
[30] = Antiproliferative activity against human LOXIMVI cells assessed as cell growth at 10^-8 M after 48 hrs by sulforhodamine B assay; conditions: LOX IMVI, read-out: Activity
[31] = Antiproliferative activity against human Hs 578T cells assessed as cell growth at 10^-4 M after 48 hrs by sulforhodamine B assay; conditions: read-out: Activity
[32] = Antiproliferative activity against human HCT15 cells assessed as cell growth at 10^-6 M after 48 hrs by sulforhodamine B assay; conditions: HCT-15, 48 h, read-out: Activity
[33] = system: SR; test: Antiproliferative activity against human SR cells assessed as growth inhibition after 48 hrs by sulforhodamine B assay
[34] = system: 786-0; test: Antiproliferative activity against human 786-0 cells assessed as cell growth at 10^-7 M after 48 hrs by sulforhodamine B assay; conditions: 786-0, 48 h, read-out: Activity
[35] = Antiproliferative activity against human SF295 cells assessed as cell growth at 10^-7 M after 48 hrs by sulforhodamine B assay; conditions: SF-295, 48 h, read-out: Activity
[36] = Antiproliferative activity against human OVCAR8 cells assessed as cell growth at 10^-6 M after 48 hrs by sulforhodamine B assay; conditions: OVCAR-8, 48 h, read-out: Activity
[37] = Antiproliferative activity against human SF295 cells assessed as cell growth at 10^-8 M after 48 hrs by sulforhodamine B assay; conditions: SF-295, 48 h, read-out: Activity
[38] = Antiproliferative activity against human SNB75 cells assessed as cell growth at 10^-4 M after 48 hrs by sulforhodamine B assay; conditions: SNB-75, 48 h, read-out: Activity
[39] = read-out: LC50 (the source's name)

CNC(=O)c1cc(Oc2ccc3nc(NC(=O)Nc4ccc(Cl)c(C(F)(F)F)c4)sc3c2)ccn1
growth at 100 µM [1]: 30%
growth at 100 µM [2]: -11%
growth at 1 µM [3]: 89%
growth at 100 µM [4]: -77%
growth at 0.1 µM [5]: 87%
growth at 0.01 µM [6]: 90%
GI50 [7]: 1.75 µM
TGI [7]: 4.18 µM
growth at 0.01 µM [8]: 97%
growth at 0.01 µM [9]: 100%
growth at 0.1 µM [10]: 104%
growth at 0.01 µM [11]: 107%
GI50 [12]: 1.56 µM
growth at 0.1 µM [13]: 101%
growth at 0.1 µM [14]: 107%
GI50 [15]: 2.64 µM
TGI [15]: 9.73 µM
CC50 [15]: > 100 µM
growth at 1 µM [16]: 83%
GI50 [17]: 2.29 µM
TGI [17]: 4.62 µM
CC50 [17]: 9.32 µM
growth at 0.01 µM [18]: 92%
growth at 100 µM [19]: 28%
growth at 0.01 µM [20]: 90%
growth at 1 µM [21]: 87%
growth at 1 µM [22]: 81%
growth at 0.1 µM [23]: 95%
growth at 100 µM [24]: 12%
growth at 0.01 µM [25]: 106%
growth at 0.01 µM [26]: 102%
GI50 [27]: 2.49 µM
LC50 (concentration killing 50% of cells) [27]: > 100 µM
TGI [27]: 12.2 µM
growth at 1 µM [28]: 90%
growth at 1 µM [29]: 82%
growth at 0.01 µM [30]: 99%
growth at 100 µM [31]: -12%
growth at 1 µM [32]: 74%
GI50 [33]: 0.412 µM
LC50 [33]: > 100 µM
TGI [33]: 9.1 µM
growth at 0.1 µM [34]: 101%
growth at 0.1 µM [35]: 88%
growth at 1 µM [36]: 103%
growth at 0.01 µM [37]: 95%
growth at 100 µM [38]: -80%

CNC(=O)c1cc(Oc2ccc(NC(=O)Nc3ccc(Cl)c(C(F)(F)F)c3)cc2)ccn1 [SORAFENIB]
GI50 [7]: 2.51 µM
TGI [7]: 7.94 µM
CC50 [7, 39]: 63.1 µM
GI50 [12]: 2.51 µM
TGI [12]: 7.94 µM
CC50 [12, 39]: 31.6 µM
GI50 [15]: 3.16 µM
TGI [15]: 5.01 µM
CC50 [15]: 15.8 µM
GI50 [17]: 3.98 µM
TGI [17]: 10 µM
CC50 [17]: 50.1 µM
GI50 [27]: 2.51 µM
TGI [27]: 6.31 µM
GI50 [33]: 3.16 µM
TGI [33]: 100 µM
